Laboratory results published in patent publication US20260335300A1, “Synthetic Nicotine Analogue Formulation For Nicotine Replacement and Amplication” (priority 2023, published 2026).

How the values were obtained:
[1] = background statement, cited from earlier work; for satisfaction and 'throat-hit' sensation: novel tobacco products; for satisfaction in oral and nasal products: novel oral and nasal nicotine products
in vivo = settings: rat, po
rats [2] = settings: acute oral
[3] = Solubility in appropriate solvents; format: physicochemical; settings: in the appropriate solvents
mice [4] = settings: mouse, in vivo
[5] = Chemical stability in air / exposure to atmosphere for 24 hours, discoloration, blending; format: physicochemical
rats [6] = settings: comparison value; cited from earlier work
mice [7] = settings: comparison value; cited from earlier work

CN1CCCC1c1cccnc1 (racemic) [racemic nicotine]
satisfaction and 'throat-hit' sensation [1]: does not induce the distinctive satisfaction and ‘throat-hit’ sensation

Cc1ccc([C@H]2CCCN2C)cn1 [(R)-6-Methylnicotine, reference compound]
efficacy as nicotine analogue and flavor (enantiomer, no test described): not effective as a nicotine analogue, and contributes to unpleasant flavors

Cc1ccc([C@@H]2CCCN2C)cn1.O=C(O)c1ccccc1 [(S)-6-Methylnicotine benzoate]
LD50 (in vivo): 120 to 215 mg/kg
reduction in toxicity versus nicotine on an equivalent effective use basis (rats [2]; equivalent effective use basis): 2 order of magnitude
toxicity relative to nicotine (rats [2]; versus nicotine): half to one quarter as toxic

Cc1ccc([C@@H]2CCCN2C)cn1 [(S)-6-Methylnicotine, (S)-2-methyl-5-(1-methylpyrrolidin-2-yl)pyridine]
solubility [3]: acceptable for all of the aforementioned applications
reduction of oral toxicity versus nicotine (mice [4]): ~3 order of magnitude
toxicity compared to nicotine, in words (mice [4]; po): both less toxic, and can be used in lower amounts than nicotine
relief from cravings / subjective hit sensation (in words): induces a subjective “hit” sensation which satisfies cravings
onset of action compared to nicotine (preliminary, versus nicotine): may be faster acting
chemical stability compared to nicotine ([5]; degradation and discoloration): more chemically stable than nicotine, and resists degradation and discoloration
lifetime in the air relative to nicotine ([5]; in the air, versus nicotine, may potentially): ≤ 5 times
stability when blended with other compounds ([5]; versus nicotine, blended with other compounds): more stable than nicotine when blended with other compounds
resistance to higher temperatures ([5]; versus nicotine, may): may be able to resist higher temperatures

COC(=O)C1=CCCN(C)C1 [arecoline]
satisfaction in oral and nasal products [1]: limited satisfaction due to a lack of satisfactory sensations
satisfaction and 'throat-hit' sensation [1]: lack of satisfaction and ‘throat-hit’ sensation

O=c1cccc2n1C[C@@H]1CNC[C@H]2C1 [cytisine]
satisfaction in oral and nasal products [1]: limited satisfaction due to a lack of satisfactory sensations
satisfaction and 'throat-hit' sensation [1]: lack of satisfaction and ‘throat-hit’ sensation

CN1CCCC1c1cccnc1 (stereo not drawn) [nicotine]
acute oral LD50 of nicotine (rats [6]): 50 mg/kg
yellowing on exposure to atmosphere ([5]; exposed to atmosphere for 24 hours): yellowing was observed sooner than (S)-6-Methylnicotine
acute oral LD50 of nicotine (mice [7]): about 3.3 mg/kg BW
